Experimental data: patent US20080125453A1 (TIBER LABORATORIES, LLC, priority 2001, published 2008)
Structures can show the parent of a compound that is named as a salt.

Experiments:
[1] = background statement; cited from earlier work
[2] = assay type: physicochemical
Description: The salt of the active ingredient, corresponding to an amount of free base present in a final batch size of 1 kg was dissolved in 100 ml of purified water. 120 ml of purified water was placed in a 600 ml beaker and stirred. While stirring, 3 g of MAS was added in small portions to obtain a dispersion. The amount of MAS used is a part of the total amount of MAS to be used in the formulation. Once the MAS was dispersed, tannic acid was added to the mixture and stirred to form a uniform dispersion. Three different batches of the MAS/tannic acid dispersion in purified water were prepared for each active. In the three batches, the amount of tannic acid used in the batch may vary from an amount equal to that of the free base, to two time to three times that of the free base present in the initial salt solution.
The salt solution was then added in small portions, under light stirring, to the MAS/Tannic acid dispersion. After all of the salt solution was added, the volume was made up to 250 ml with purified water and stirring was continued for a period of 10 minutes.
The MAS was used in this step to serve as an adherent or a solid support for the tannic acid molecules to facilitate the conversion process.

Structure (SMILES) | solubility in water [1] | other results
CNC[C@H](O)c1cccc(O)c1 [Phenylephrine hydrochloride] | freely soluble | –
COc1ccc(CN(CCN(C)C)c2ccccn2)cc1 [Pyrilamine hydrochloride, N-[(4-methoxyphenyl)methyl]-N′,N′-dimethyl- -N-2-pyridinyl-1,2-ethanediamine] | freely soluble | –
COc1ccc(CN(CCN(C)C)c2ccccn2)cc1 [maleate salt, N-[(4-methoxyphenyl)methyl]-N′,N′-dimethyl- -N-2-pyridinyl-1,2-ethanediamine] | slightly soluble | –
CNC[C@H](O)c1cccc(O)c1 [phenylephrine] | – | solubility of the tannate salt in purified water [2]: partial solubility
COc1ccc(CN(CCN(C)C)c2ccccn2)cc1 [pyrilamine] | – | precipitate formation on addition to MAS/tannic acid dispersion ([2]; purified water, at all three concentrations of tannic acid (1x, 2x, 3x the free base)): copious amounts of precipitate
